# According to PMC12446476 (Nature Communications, 2025):
# Where two headings read alike, the source gives them in different places.
# Tested on: N. gonorrhoeae
# Test: MIC determination, Etest
# Type: cell-based, Neisseria gonorrhoeae
# Details: Neisseria gonorrhoeae, comparator antibiotics, read-out: Minimum inhibitory concentration
# Text: The 2024 WHO N. gonorrhoeae reference strains were used for quality control. Only whole MIC doubling dilutions are reported. Clinical breakpoints or the epidemiological cutoff (ECOFF, to indicate azithromycin resistance) from EUCAST (v14.0, https://www.eucast.org/clinical_breakpoints) were used to classify isolates as antimicrobial susceptible or resistant. […] Two times the standard inoculum defined by CLSI was used to establish consistent growth in untreated control samples for some strains. In vitro time-kill assays were performed according to CLSI guidelines[65] using Columbia Broth (BD Difco) supplemented with 1% IsoVitaleX Enrichment (BD). Viable bacterial counts were generated by plating 10-fold serially diluted samples on GC agar plates containing 1% IsoVitaleX Enrichment (BD).
compound,measurement,setting,value
"CO/N=C(\C(=O)N[C@@H]1C(=O)N2C(C(=O)O)=C(CSc3nc(=O)c(=O)[nH]n3C)CS[C@H]12)c1csc(N)n1 [Ceftriaxone, reference compound]",MIC,"clinical N. gonorrhoeae isolate 1, Sweden 2023",4 ng/mL
same,MIC,"clinical N. gonorrhoeae isolate 2, Sweden 2023",32 ng/mL
same,MIC,"clinical N. gonorrhoeae isolate 3, Sweden 2023",4 ng/mL
same,MIC,"clinical N. gonorrhoeae isolate 4, Sweden 2023",32 ng/mL
same,MIC,"clinical N. gonorrhoeae isolate 5, Sweden 2023",4 ng/mL
same,MIC,"clinical N. gonorrhoeae isolate 6, Sweden 2023",< 2 ng/mL
same,MIC,"clinical N. gonorrhoeae isolate 7, Sweden 2023",8 ng/mL
same,MIC,"clinical N. gonorrhoeae isolate 8, Sweden 2023",4 ng/mL
same,MIC,"clinical N. gonorrhoeae isolate 9, Sweden 2023",4 ng/mL
same,MIC,"clinical N. gonorrhoeae isolate 10, Sweden 2023",< 2 ng/mL
same,MIC,"clinical N. gonorrhoeae isolate 11, Sweden 2023",64 ng/mL
same,MIC,"clinical N. gonorrhoeae isolate 12, Sweden 2023",8 ng/mL
same,MIC,"clinical N. gonorrhoeae isolate 13, Sweden 2023",< 2 ng/mL
same,MIC,"clinical N. gonorrhoeae isolate 14, Sweden 2023",4 ng/mL
same,MIC,"clinical N. gonorrhoeae isolate 15, Sweden 2023",4 ng/mL
same,MIC,"clinical N. gonorrhoeae isolate 16, Sweden 2023",32 ng/mL
same,MIC,"clinical N. gonorrhoeae isolate 17, Sweden 2023",4 ng/mL
same,MIC,"clinical N. gonorrhoeae isolate 18, Sweden 2023",4 ng/mL
same,MIC,"clinical N. gonorrhoeae isolate 19, Sweden 2023",16 ng/mL
same,MIC,"clinical N. gonorrhoeae isolate 20, Sweden 2023",2 ng/mL
same,MIC,"clinical N. gonorrhoeae isolate 21, Sweden 2023",2 ng/mL
same,MIC,"clinical N. gonorrhoeae isolate 22, Sweden 2023",2 ng/mL
same,MIC,"clinical N. gonorrhoeae isolate 23, Sweden 2023",< 2 ng/mL
same,MIC,"clinical N. gonorrhoeae isolate 24, Sweden 2023",2 ng/mL
same,MIC,"clinical N. gonorrhoeae isolate 25, Sweden 2023",4 ng/mL
same,MIC,"clinical N. gonorrhoeae isolate 26, Sweden 2023",4 ng/mL
same,MIC,"clinical N. gonorrhoeae isolate 27, Sweden 2023",4 ng/mL
same,MIC,"clinical N. gonorrhoeae isolate 28, Sweden 2023",8 ng/mL
same,MIC,"clinical N. gonorrhoeae isolate 29, Sweden 2023",4 ng/mL
same,MIC,"clinical N. gonorrhoeae isolate 30, Sweden 2023",< 2 ng/mL
same,MIC,"clinical N. gonorrhoeae isolate 31, Sweden 2023",4 ng/mL
same,MIC,"clinical N. gonorrhoeae isolate 32, Sweden 2023",2 ng/mL
same,MIC,"clinical N. gonorrhoeae isolate 33, Sweden 2023",2 ng/mL
same,MIC,"clinical N. gonorrhoeae isolate 34, Sweden 2023",4 ng/mL
same,MIC,"clinical N. gonorrhoeae isolate 35, Sweden 2023",64 ng/mL
same,MIC,"clinical N. gonorrhoeae isolate 36, Sweden 2023",8 ng/mL
same,MIC,"clinical N. gonorrhoeae isolate 37, Sweden 2023",16 ng/mL
same,MIC,"clinical N. gonorrhoeae isolate 38, Sweden 2023",4 ng/mL
same,MIC,"clinical N. gonorrhoeae isolate 39, Sweden 2023",4 ng/mL
same,MIC,"clinical N. gonorrhoeae isolate 40, Sweden 2023",8 ng/mL
same,MIC,"clinical N. gonorrhoeae isolate 41, Sweden 2023",32 ng/mL
same,MIC,"clinical N. gonorrhoeae isolate 42, Sweden 2023",< 2 ng/mL
same,MIC,"clinical N. gonorrhoeae isolate 43, Sweden 2023",4 ng/mL
same,MIC,"clinical N. gonorrhoeae isolate 44, Sweden 2023",64 ng/mL
same,MIC,"clinical N. gonorrhoeae isolate 45, Sweden 2023",2 ng/mL
same,MIC,"clinical N. gonorrhoeae isolate 46, Sweden 2023",16 ng/mL
same,MIC,"clinical N. gonorrhoeae isolate 47, Sweden 2023",8 ng/mL
same,MIC,"clinical N. gonorrhoeae isolate 48, Sweden 2023",4 ng/mL
same,MIC,"clinical N. gonorrhoeae isolate 49, Sweden 2023",4 ng/mL
same,MIC,"clinical N. gonorrhoeae isolate 50, Sweden 2023",4 ng/mL
same,MIC,"clinical N. gonorrhoeae isolate 51, Sweden 2023",2 ng/mL
same,MIC,"clinical N. gonorrhoeae isolate 52, Sweden 2023",2 ng/mL
same,MIC,"clinical N. gonorrhoeae isolate 53, Sweden 2023",2 ng/mL
same,MIC,"clinical N. gonorrhoeae isolate 54, Sweden 2023",4 ng/mL
same,MIC,"clinical N. gonorrhoeae isolate 55, Sweden 2023",4 ng/mL
same,MIC,"clinical N. gonorrhoeae isolate 56, Sweden 2023",32 ng/mL
same,MIC,"clinical N. gonorrhoeae isolate 57, Sweden 2023",16 ng/mL
same,MIC,"clinical N. gonorrhoeae isolate 58, Sweden 2023",2 ng/mL
same,MIC,"clinical N. gonorrhoeae isolate 59, Sweden 2023",16 ng/mL
same,MIC,"clinical N. gonorrhoeae isolate 60, Sweden 2023",2 ng/mL
same,MIC,"clinical N. gonorrhoeae isolate 61, Sweden 2023",< 2 ng/mL
same,MIC,"clinical N. gonorrhoeae isolate 62, Sweden 2023",< 2 ng/mL
same,MIC,"clinical N. gonorrhoeae isolate 63, Sweden 2023",< 2 ng/mL
same,MIC,"clinical N. gonorrhoeae isolate 64, Sweden 2023",16 ng/mL
same,MIC,"clinical N. gonorrhoeae isolate 65, Sweden 2023",< 2 ng/mL
same,MIC,"clinical N. gonorrhoeae isolate 66, Sweden 2023",32 ng/mL
same,MIC,"clinical N. gonorrhoeae isolate 67, Sweden 2023",16 ng/mL
same,MIC,"clinical N. gonorrhoeae isolate 68, Sweden 2023",4 ng/mL
same,MIC,"clinical N. gonorrhoeae isolate 69, Sweden 2023",4 ng/mL
same,MIC,"clinical N. gonorrhoeae isolate 70, Sweden 2023",< 2 ng/mL
same,MIC,"clinical N. gonorrhoeae isolate 71, Sweden 2023",32 ng/mL
same,MIC,"clinical N. gonorrhoeae isolate 72, Sweden 2023",32 ng/mL
same,MIC,"clinical N. gonorrhoeae isolate 73, Sweden 2023",16 ng/mL
same,MIC,"clinical N. gonorrhoeae isolate 74, Sweden 2023",32 ng/mL
same,MIC,"clinical N. gonorrhoeae isolate 75, Sweden 2023",32 ng/mL
same,MIC,"clinical N. gonorrhoeae isolate 76, Sweden 2023",4 ng/mL
same,MIC,"clinical N. gonorrhoeae isolate 77, Sweden 2023",2 ng/mL
same,MIC,"clinical N. gonorrhoeae isolate 78, Sweden 2023",16 ng/mL
same,MIC,"clinical N. gonorrhoeae isolate 79, Sweden 2023",< 2 ng/mL
same,MIC,"clinical N. gonorrhoeae isolate 80, Sweden 2023",8 ng/mL
same,MIC,"clinical N. gonorrhoeae isolate 81, Sweden 2023",4 ng/mL
same,MIC,"clinical N. gonorrhoeae isolate 82, Sweden 2023",16 ng/mL
same,MIC,"clinical N. gonorrhoeae isolate 83, Sweden 2023",4 ng/mL
same,MIC,"clinical N. gonorrhoeae isolate 84, Sweden 2023",64 ng/mL
same,MIC,"clinical N. gonorrhoeae isolate 85, Sweden 2023",4 ng/mL
same,MIC,"clinical N. gonorrhoeae isolate 86, Sweden 2023",8 ng/mL
same,MIC,"clinical N. gonorrhoeae isolate 87, Sweden 2023",2 ng/mL
same,MIC,"clinical N. gonorrhoeae isolate 88, Sweden 2023",64 ng/mL
same,MIC,"clinical N. gonorrhoeae isolate 89, Sweden 2023",4 ng/mL
same,MIC,"clinical N. gonorrhoeae isolate 90, Sweden 2023",2 ng/mL
same,MIC,"clinical N. gonorrhoeae isolate 91, Sweden 2023",4 ng/mL
same,MIC,"clinical N. gonorrhoeae isolate 92, Sweden 2023",4 ng/mL
same,MIC,"clinical N. gonorrhoeae isolate 93, Sweden 2023",4 ng/mL
same,MIC,"clinical N. gonorrhoeae isolate 94, Sweden 2023",2 ng/mL
same,MIC,"clinical N. gonorrhoeae isolate 95, Sweden 2023",< 2 ng/mL
same,MIC,"clinical N. gonorrhoeae isolate 96, Sweden 2023",2 ng/mL
same,MIC,"clinical N. gonorrhoeae isolate 97, Sweden 2023",< 2 ng/mL
same,MIC,"clinical N. gonorrhoeae isolate 98, Sweden 2023",2 ng/mL
same,MIC,"clinical N. gonorrhoeae isolate 99, Sweden 2023",4 ng/mL
same,MIC,"clinical N. gonorrhoeae isolate 100, Sweden 2023",4 ng/mL
